{"source": "patent US20250361230A1", "about": "“LATS Inhibitors and Uses Thereof” (The USA, as Represented by the Secretary, Dept. of Heath …, priority 2022, published 2025)", "target": "T1, LATS1 Kinase-NanoLuc fusion in HEK-293 cells (Homo sapiens, UniProt O95835)", "T1 construct": "host or cells: HEK-293", "T1 sequence (O95835 1-1130)": "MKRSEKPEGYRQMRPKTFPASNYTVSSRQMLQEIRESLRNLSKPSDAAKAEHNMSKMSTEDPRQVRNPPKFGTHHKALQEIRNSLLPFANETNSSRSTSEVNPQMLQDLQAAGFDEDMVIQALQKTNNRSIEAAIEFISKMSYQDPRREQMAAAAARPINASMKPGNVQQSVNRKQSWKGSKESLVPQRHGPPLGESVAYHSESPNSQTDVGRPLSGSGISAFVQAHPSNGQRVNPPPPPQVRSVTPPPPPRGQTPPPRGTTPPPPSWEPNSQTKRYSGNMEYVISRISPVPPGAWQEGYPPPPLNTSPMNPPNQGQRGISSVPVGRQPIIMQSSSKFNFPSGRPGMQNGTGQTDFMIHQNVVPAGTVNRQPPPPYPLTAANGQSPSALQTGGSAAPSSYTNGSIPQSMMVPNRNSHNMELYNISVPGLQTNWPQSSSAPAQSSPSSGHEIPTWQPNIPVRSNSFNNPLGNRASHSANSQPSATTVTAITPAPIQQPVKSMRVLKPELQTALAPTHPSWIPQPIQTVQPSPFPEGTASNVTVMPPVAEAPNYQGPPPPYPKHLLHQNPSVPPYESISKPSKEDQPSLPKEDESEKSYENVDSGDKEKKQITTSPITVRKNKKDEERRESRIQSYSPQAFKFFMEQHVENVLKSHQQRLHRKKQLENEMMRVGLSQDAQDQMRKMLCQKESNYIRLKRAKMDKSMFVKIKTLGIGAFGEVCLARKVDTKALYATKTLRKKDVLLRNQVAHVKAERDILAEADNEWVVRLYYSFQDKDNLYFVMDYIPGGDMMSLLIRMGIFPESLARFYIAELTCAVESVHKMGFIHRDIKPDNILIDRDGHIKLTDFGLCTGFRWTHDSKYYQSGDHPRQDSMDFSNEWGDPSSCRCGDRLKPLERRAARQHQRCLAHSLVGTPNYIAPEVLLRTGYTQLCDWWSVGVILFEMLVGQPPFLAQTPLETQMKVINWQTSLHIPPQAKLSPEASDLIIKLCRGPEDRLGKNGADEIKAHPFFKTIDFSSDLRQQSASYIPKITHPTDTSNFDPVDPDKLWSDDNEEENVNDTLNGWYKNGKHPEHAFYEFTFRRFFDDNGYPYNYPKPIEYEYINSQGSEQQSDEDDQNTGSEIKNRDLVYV", "test": "NanoBRET target engagement assay in transfected HEK-293 cells, LATS1", "format": "cell-based", "settings": "cellular", "how_it_was_run": "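HEK-293 cells transiently transfected with kinase-NanoLuc fusion plasmid for 22-24 h, then incubated with compound and NanoBRET tracer for 1 hour at 37° C. After substrate plus extracellular NanoLuc inhibitor addition, 460 and 600 nm emissions read; no-tracer-corrected BRET ratio used to derive IC50 values.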", "data": [{"smiles": "Cc1cc(-c2ccnc3[nH]cc(C#N)c23)ccc1[C@@]1(O)[C@H](C)CN(C2CCS(=O)(=O)CC2)C[C@@H]1C", "note": "[Compound 2003, 4-(4-((3S,4s,5R)-1-(1,1-dioxidotetrahydro-2H-thiopyran-4-yl)-4-hydroxy-3,5-dimethylpiperidin-4-yl)-3-methylphenyl)-1H-pyrrolo[2,3-b]pyridine-3-carbonitrile]", "values": [{"measurement": "IC50", "result": 0.015, "unit": "µM"}]}]}
